Marks after values point to notes of the source that are not given here.
Assays:
[1] = biological target: anterior pituitary V1B receptor; experiment: Rat V1B RO study using a tritium labeled V1B receptor ligand; details: in vivo; estimated from RO study of Kamiya et al., 2020
[2] = Plasma protein binding by equilibrium dialysis, dog plasma; assay type: in vitro ADME; details: 300 ng/ml
Protocol: The plasma protein binding of THY1773 in rats, dogs, and humans was evaluated by an equilibrium dialysis method using a 96‐well equilibrium dialysis plate (HTDialysis) with a 12–14 kDa cut‐off dialysis membrane. THY1773 was dissolved in dimethyl sulfoxide, and spiked with rat, dog, or human plasma at a final concentration of 300 ng/ml. An aliquot of plasma containing THY1773 and sodium phosphate buffer (pH 7.4) was added into the donor side and the receiver side of each designated well, respectively. After incubation for 6 h at a rate of 50 oscillation/min at 37°C in an air incubator, an aliquot of each side of each well was collected and mixed with acetonitrile/methanol (9:1, vol/vol) containing the IS. Each sample was centrifuged at 3974 × g for 10 min at 4°C to remove the precipitated proteins, and the resultant supernatants were subjected to LC‐MS/MS analysis. The protein binding (%) was calculated using the Boudinot formula (Boudinot & Jusko, 1984).

[3] = Prediction of human Vdss
Description: Human Vdss was also predicted by the two methods reported to be the best methods based on the prediction accuracy (Jones et al., 2011), which were Øie‐Tozer method (Obach et al., 1997) and rat–dog–human proportionality equation described (Wajima, Fukumura, Yano, & Oguma, 2003) by Equations (6) and (7), respectively: (6) Vdss[L/kg]=Vp×(1+RE/I)+Vp×fu×(Ve/Vp−RE/I)+Vr×fu/fu,t (7) log(Vdss,human)=0.07714×log(Vdss,rat)×log(Vdss,dog)+0.5147×log(Vdss,dog)+0.586 where fu,t is the fraction unbound in tissues, RE/I is the ratio of binding protein in the extracellular fluid to that in plasma, Ve, Vp, and Vr is the extracellular, plasma, and remaining fluid volume, respectively. Volumes and plasma protein levels were used as described by Obach et al. (1997).
The fold error of the difference between observed and predicted human PK parameters was calculated by dividing the predicted value by the observed value.

[4] = CLint in human liver microsomes (reaction phenotyping, no inhibitor); assay type: in vitro ADME; details: HLMs
Protocol: (§1) Reaction phenotyping using cDNA expressed recombinant human CYP isoforms, CYP1A2, CYP2B6, CYP2C8, CYP2C9, CYP2C19, CYP2D6, and CYP3A4, was conducted. Each recombinant enzyme (100 pmol/ml) in potassium phosphate buffer (pH 7.4; 100 mmol/L for CYP3A4, 50 mmol/L for the others) was preincubated with [^3H]THY1773 (10 μmol/L) at 37°C for 5 min. The reactions were initiated by the addition of NADPH‐generating system (1 mmol/L NADP^+, 5 mmol/L G‐6‐P, 1 unit/ml G‐6‐PDH, and 5 mmol/L MgCl2) and incubated for 0 or 60 min. The reactions were terminated by the addition of an equal volume of acetonitrile/methanol (9:1, vol/vol), followed by centrifugation at 1650 × g for 10 min at 4°C. An aliquot of the supernatant was subjected to an Agilent 1200 HPLC system (Agilent Technologies, Inc.) equipped with a radiochemical flow detector (Radiomatic 625TR; Perkin Elmer, Inc.), and formation of metabolites was evaluated. […] The CLint was calculated by the method as described previously under metabolic stability in animal liver microsomes, and the fraction metabolized (fm) was calculated by Equation (1): (1) fm=1−(CLint, with inh/CLint) where CLint is intrinsic clearance without specific inhibitor and CLint,with inh is intrinsic clearance in the presence of specific inhibitor.

[5] = test system: CYP3A; experiment: Reaction phenotyping in HLMs with ketoconazole; assay type: in vitro ADME, human
Protocol: as §1

[6] = Blood-to-plasma ratio in rat whole blood; assay type: in vitro ADME; details: 1 μmol/L
Protocol: The blood‐to‐plasma ratios of THY1773 were analyzed using pooled fresh whole blood (anticoagulant: EDTA‐2K) and control plasma separated from fresh whole blood in parallel from rats, dogs, and humans. Whole blood and control plasma containing 1 μmol/L THY1773 were incubated at 37°C for 30 min in a shaking water bath. The incubated whole blood was centrifuged at 2000 × g for 10 min at 4°C to obtain plasma. An aliquot of each plasma sample (i.e., isolated plasma from incubated whole blood and control plasma) was mixed with 8 volumes of acetonitrile/methanol (9:1, vol/vol) containing the IS. After centrifugation at 3974 × g for 10 min at 4°C, the supernatant was subjected to liquid chromatography/tandem mass spectrometry (LC‐MS/MS) analysis. The blood‐to‐plasma ratio was calculated by dividing the […].

[7] = test system: depressive-like behavior; design: method as in Kamiya et al., 2020; details: ref Kamiya et al., 2020; cited from earlier work

**Q.** For CC(C)NC(=O)Cn1c(-c2cccc(Cl)c2)nn(-c2ccc(CCN3CCOCC3)cc2)c1=O [THY1773], which EC50 [1] is on record?
**A.** 4.8 nM

**Q.** What about the Plasma protein binding [2] of the same molecule?
**A.** 89.6%

**Q.** What about the “Predicted human Vdss” value ([3]; Rat–dog–human proportionality equation) of the same molecule?
**A.** 1.38 L/kg

**Q.** And the “Predicted human Vdss” value ([3]; Single species scaling (rat))?
**A.** 0.349 L/kg

**Q.** What about the “Predicted human Vdss” value ([3]; Øie‐Tozer method) of the same molecule?
**A.** 0.404 L/kg

**Q.** What about the CLint ([4]; 500 nmol/L, no inhibitor) of the same molecule?
**A.** 11.2 ± 0.898 µL/min/mg

**Q.** What about the “CLint (PBPK input, Model 1)” value ([4]; experimental data) of the same molecule?
**A.** 11.2 (Model 1) μl/min/mg protein

**Q.** And the “fm (fraction metabolized)” value ([5]; by CYP3A, ketoconazole 1 μmol/L)?
**A.** 0.914

**Q.** What about the CLint ([5]; with ketoconazole 1 μmol/L, mean of duplicate) of the same molecule?
**A.** 0.961 ^a μl/min/mg

**Q.** What about the Blood-to-plasma ratio [6] of the same molecule?
**A.** 0.822

**Q.** What about the “Effect on depressive-like behavior induced by repeated corticosterone injection” value [7] of the same molecule?
**A.** significantly improved
